Values quoted from earlier work in patent publication US20160286792A1, “METHOD AND SYSTEM FOR PEST CONTROL” (priority 2013, published 2016).
Like-named read-outs stand apart in the source and are kept apart here.

Tests used:
[1] = tested on: termites
[2] = tested on: humans
[3] = aqueous, at 25 degrees

In the case of `CCOP(=S)(OCC)Oc1nc(Cl)c(Cl)cc1Cl` [chlorpyrifos, Chlorpyrifos], the length of protection ([1]; concentration varies depending on the brand) is listed as “up to 5 years”.
In the case of `Cc1c(COC(=O)[C@@H]2[C@H](/C=C(\Cl)C(F)(F)F)C2(C)C)cccc1-c1ccccc1` (racemic) [Bifenthrin], the length of protection ([1]; applied at 0.05% concentration) is listed as 10 years, the length of protection ([1]; applied at 0.1% concentration) is listed as “at least 10 years” and the length of protection ([1]; applied at 0.25% concentration) is listed as 3 years.
In the case of `O=[N+]([O-])NC1=NCCN1Cc1ccc(Cl)nc1` [Imidacloprid], the length of protection ([1]; applied at 0.25% concentration) is listed as “up to 3 years” and the toxicity to humans [2] is listed as “low to medium toxicity”.
In the case of calcium sulphate dihydrate [gypsum], the “concentration of saturated solution” value [3] is given as 2000 to 2500 µg/mL.
